Patent US10934332B2, “Structure-based peptide inhibitors that target the Tau VQIINK fibrillization segment” (THE REGENTS OF THE UNIVERSITY OF CALIFORNIA, priority 2017, dated 2021)
Read-outs that look alike come from different tables or passages of the source. No end group written: not given here.

What was measured:
[1] = tested on: HEK293 biosensor cells stably expressing full-length Tau 4R1N P301S-EYFP; assay: Biosensor cell seeding with Tau40 fiber grown in the presence of inhibitor; assay type: cell-based, human; conditions: cells seeded with 125 nM Tau40 fiber grown with two-fold excess of inhibitor; about 61% in the absence of inhibitor
Source text: Cells seeded with Tau40 fiber grown with MINK or WINK reduced the percentage of seeded cells to 23 and 41%, respectively.
(§1) Engineered HEK293 cell lines stably expressing Tau40-YFP P301S, referred to as “tau biosensor cells” were engineered by Marc Diamond's lab at UTSW. Cells were maintained in DMEM (Life Technologies, cat. 11965092) supplemented with 10% (vol/vol) FBS (Life Technologies, cat. A3160401), 1% penicillin/streptomycin (Life Technologies, cat. 15140122), and 1% Glutamax (Life Technologies, cat. 35050061) at 37° C., 5% CO2 in a humidified incubator. Tau40 aggregates were prepared in PBS (pH 7.4) with 1 mM DTT by shaking 25 μM Tau40 with 0.5 mg/ml heparin in the presence or absence inhibitor peptide, as indicated. Fibers were sonicated in a cuphorn water bath for 3 minutes before seeding cells. For seeding, fibers were diluted in OptiMEM (Life Technologies, cat. 31985070) and transfected using Lipofectamine 2000 (Life Technologies, cat. 11668027) according to the manufacturer's instructions. After seeding, cells were imaged using a ZEISS Axio Observer D1 fluorescence microscope using the YFP fluorescence channel and Tau aggregates were counted in ImageJ software.

Tau40 = molecular target: T1, Tau40 (Homo sapiens, UniProt P10636); assay: ThT assay of Tau40 fibril formation; assay type: biochemical; conditions: heparin, shaking 700 rpm, 37° C.
T1 construct: Human Tau40 (residues 1-441) was expressed in pET28b; His-tag (C); made in house; host or cells: BL21-Gold E. coli
Protocol: The effect on fibril formation of Tau40 of the two resulting VQIINK (SEQ ID NO: 11) inhibitors, MINK (which contains a Met at position 4 to disrupt interface A) and WINK (which instead contains a Trp) was evaluated in vitro using a ThT assay.
Human Tau40 (residues 1-441) was expressed in pET28b with a C-terminal His-tag in BL21-Gold E. coli cells grown in TB to an OD600=0.8. Cells were induced with 0.5 mM IPTG for 3 hours at 37° C. and lysed by sonication in 50 mM Tris (pH 8.0) with 500 mM NaCl, 20 mM imidazole, 1 mM beta-mercaptoethanol, and HALT protease inhibitor. Cells were lysed by sonication, clarified by centrifugation at 15,000 rpm for 15 minutes, and passed over a 5 ml HisTrap affinity column. The column was washed with lysis buffer and eluted over a gradient of imidazole from 20 to 300 mM. Fractions containing purified Tau40 were dialyzed into 50 mM MES buffer (pH 6.0) with 50 mM NaCl and 1 mM beta-mercaptoethanol and purified by cation exchange as described for K18. Peak fractions were polished on a HiLoad 16/600 Superdex […] in 1×PBS (pH 7.4), and concentrated to ˜20-60 mg/ml by ultrafiltration using a 10 kDa cutoff.
Concentrated Tau protein was diluted into PBS buffer (pH 7.4) to a final concentration as indicated in the text. Proteins were shaken as solutions containing 75 μM ThT, 0.5 mg/ml heparin, 1 mM DTT, and a two-fold molar excess of inhibitor (when indicated) in 96-well plates with a plastic bead to enhance agitation. ThT fluorescence was measured with excitation and emission wavelengths of 440 and 480 nm, and averaged curves were generated from duplicate measurements.

[2] = tested on: Full-length Tau-YFP biosensor cells seeded with pre-formed Tau40 fibers; assay type: cell-based, human; conditions: for inhibition of seeding by pre-formed Tau40 fibers (in words): pre-formed Tau40 fibrils incubated with inhibitor before applying to biosensor cells
Protocol: To test whether VQIINK (SEQ ID NO: 11) inhibitors can cap pre-formed fibers to block their spread, Tau40 amyloid fibrils were incubated with varying concentrations of inhibitor before applying to biosensor cells and measuring seeding. In addition, a third VQIINK (SEQ ID NO: 11) inhibitor, RINK which contains an Arg at position 4, was also tested.
as §1

[3] = 10 μM Tau40, two-fold mole excess of inhibitor
[4] = 25 μM Tau40, two-fold mole excess of inhibitor

T1 sequence (P10636 1-441 isoform P10636-8): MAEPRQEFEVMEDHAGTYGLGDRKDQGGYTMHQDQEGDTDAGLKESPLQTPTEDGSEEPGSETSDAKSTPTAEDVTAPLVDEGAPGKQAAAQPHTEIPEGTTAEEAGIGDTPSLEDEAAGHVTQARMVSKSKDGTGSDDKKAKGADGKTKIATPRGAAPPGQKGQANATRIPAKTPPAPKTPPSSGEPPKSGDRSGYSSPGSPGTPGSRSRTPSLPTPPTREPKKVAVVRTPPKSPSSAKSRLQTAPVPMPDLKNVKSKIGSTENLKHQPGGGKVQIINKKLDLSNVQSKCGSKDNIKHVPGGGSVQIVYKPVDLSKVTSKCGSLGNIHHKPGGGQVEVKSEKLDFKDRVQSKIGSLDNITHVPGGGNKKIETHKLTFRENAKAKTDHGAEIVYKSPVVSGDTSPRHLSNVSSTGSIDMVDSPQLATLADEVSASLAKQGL

Row | Substance | percentage of seeded cells (cells with intracellular aggregates) [1] | Tau40 fibril formation (ThT fluorescence) (Tau40; [3]) | Tau40 fibril formation (ThT fluorescence) (Tau40; [4]) | IC50 [2] | inhibition of seeding by pre-formed Tau40 fibers (in words) [2] | seeding by Tau40 fibers in biosensor cells (fluorescence images) ([2]; 5 μM inhibitor) | seeding by Tau40 fibers in biosensor cells (fluorescence images) ([2]; 25 μM inhibitor)
1 | DVQWINKKRK [WINK, DVQWINKKRK] | 41% | reducing the amount of Tau40 aggregation to about half | reduced Tau40 aggregation to about half | 25 µM | inhibit seeding by Tau40 fibers in a concentration dependent fashion | – | –
2 | DVQMINKKRK [MINK, DVQMINKKRK] | 23% | completely inhibiting any detectable Tau40 fibril formation for at least 60 hours | reduced Tau40 aggregation to about half | 22 µM | inhibit seeding by Tau40 fibers in a concentration dependent fashion | – | –
3 | DVQRINKKRK | – | – | – | – | inhibited more poorly than MINK and WINK | – | –
4 | W-WINK: Phase 2 inhibitor: WINK incorporating a Trp steric clash at position 3 (DVWWINKKRK) | – | – | – | – | performed more poorly than W-MINK | – | –
5 | DVWMINKKRK [W-MINK, DVWMINKKRK] | – | – | – | 9 µM | – | Tau40 fibers are still able to induce seeding | seeding by Tau40 fibers is no longer observed
